The results in this text go back to patent US6642256B2, “Piperidine derivatives as subtype selective N-Methyl-D-Aspartate antagonists” (Warner-Lambert Company LLC, priority 2000, dated 2003).

Data set [1] addresses T1, NR1A/NR2B NMDA receptor subtype (Rattus norvegicus, UniProt P35439+Q00960).
T1 construct: buffy coat membrane fraction was prepared from frozen adult rat forebrains; tissue Zivic-Miller Laboratories, Inc; host or cells: adult rat forebrain membranes
The data set can be described thus: [3H]Ifenprodil binding assay (IFPNR), rat forebrain membranes. The method, then:
b. [^3H]Ifenprodil Binding Assay (IFPNR) Protocol:
Ifenprodil, [phenyl-^3H]-(specific activity, 66.2 Ci/mmol) was purchased from Dupont NEN Research Products (Boston, Mass.). Ifenprodil tartrate was purchased from Research Biochemicals International (Natick, Mass.). HEPES, glutamate and glycine were purchased from Sigma Chemical Co. (St. Louis, Mo.).
All buffers and reagents used in assay incubations or to dissolve drugs were prepared using water purified through a Milli-Q reverse osmosis system (Millipore Corp., Bedford, Mass.) and treated with UV emissions. Prior to use in the assays buffers were further filtered through a sterile Coming filtration unit (Coming Glass Works, Coming, N.Y.) containing a 0.2 micron filter. Buffer used to rinse the membranes on the assay filters was prepared with purified water, but was not refiltered and was stored no longer than 5 days. Stock solutions of the drugs (usually 10 mM) were dissolved in 20 mM HEPES-KOH buffer pH 7.4 (assay buffer) with the addition of 1 to 5 μL of glacial AcOH, if needed to keep them in solution. Eliprodil was used as the reference NMDA antagonist. A stock solution of eliprodil was prepared, and was buffered with the addition of 10% DMSO. All subsequent dilutions from the stock solution were made in buffer.
An extensively washed buffy coat membrane fraction was prepared from frozen adult rat forebrains (Zivic-Miller Laboratories, Inc., Zelienople, Pa.) as described by Coughenour L. L.; Cordon, J. J., J. Pharmacol. Exp. Ther., 1997;280:584-592, and stored at −80° C. On the day of the assay, pellets of the frozen membrane fractions were resuspended in 35 mL of assay buffer at pH 7.4 using a POLYTRON (Kinematica A. G. Company, Littau, Switzerland) mixer at setting 6. After incubation at 37° C. for 30 minutes in a shaking water bath, the homogenate was centrifuged 40,000×g for 10 minutes at 4° C. The pellets were resuspended in fresh buffer and centrifuged 3 more times before final suspension for use in the assay.
(iii) [^3H]Ifenprodil Binding protocol:
Triplicate incubations were carried out in a volume of 0.5 mL in 1.3 mL polypropylene tubes (Marsh Biomedical Products Inc, Rochester, N.Y.) for 2 hours at room temperature. Incubations contained invention compounds, membranes (100-200 μg protein) and 4 nM [^3H]-ifenprodil in 20 mM HEPES-KOH buffer, pH 7.4 (assay buffer). Assays were started by addition of the membranes. Bound radioligand was separated by filtration under reduced pressure using a TOMTEC Mach II, 96-well cell harvester (Tomtec Inc, Orange, Conn.). Filtration was through Whatman GF/B glass fiber filters (Whatman Ltd., Maidstone, England), which had been soaked for at least 15 minutes in 0.3% polyethylenimine and allowed to air dry. The filters were rinsed with 3 mL of ice cold assay buffer within 6 seconds. Air was allowed to pass through the filters for an additional 10 seconds to remove residual moisture. The filter mat was supported on a cold (−20° C.) TEFLON (E. I. Du Pont de Nemours and Company, Wilmington, Del.) coated support, and filters from individual wells were separated and placed in Mini Poly-Q vials (Becklman Instruments Inc, Fullerton, Calif.) and filled with 4 mL of scintillation cocktail (Beckman Ready Protein^+). Radioactivity retained on the filter was determined by liquid scintillation spectrophotometry. Nonspecific binding was defined as the binding in the presence of […] ifenprodil. Ninety percent of the total binding of ifenprodil was specific binding at the NR1A/NR2B NMDA receptor subtype active site (as opposed to binding at a remote site).
Binding curves were statistically analyzed for a best 1- or 2-site competition fit using GRAPHPAD PRISM software (GraphPad Software Inc, San Diego, Calif.), a computer program used to analyze and graph scientific data. The normalized data was fitted by nonweighted nonlinear regression to either [formula]
Control data was entered as 100%, and no parameters were constrained. […]

The next data set concerns Male Wistar albino rats. Nature of the data set: Formalin footpad test (FT). It is filed as in vivo, rat. As to conditions: PO, statistically significant decrease in late-phase pain behaviour versus vehicle. The method, then:
a. The Formalin Footpad Test (FT):
The FT model was used to test invention compounds for pain alleviating properties. The model produces a biphasic response in a test animal that results from a change in pain intensity over time. The FT model utilizes an injection of dilute formalin into the hindpaw of a rodent, which produces high intensity acute pain behaviors which are measured for the first 10 minutes post formalin injection (early phase responding). High intensity acute pain behaviors include rapid licking or biting of the injected hindpaw. The second phase is a prolonged period of lower intensity pain behaviors (late phase responding) which are measured from 11 to 45 minutes post-formalin injection.
Male Wistar albino rats (Harlan Sprague-Dawley Labs), weighing approximately 100 g at the time of testing, were used. Animals were group-housed and acclimated to the housing facility for 1 week prior to testing. Animals were maintained on a 12-hour/12-hour light/dark cycle and fed block rodent chow. From 4 to 8 animals were randomly assigned to either a vehicle-only dose group or a vehicle-plus invention compound treatment group on the day of testing.
The testing apparatus was a 16″×8″ box divided into two 8″×8″ testing chambers. Each testing chamber comprised a floor and 3 walls made of clear plastic mirrors, and a fourth wall which was clear plastic that allowed observation of animal behavior. The top of each chamber was covered with a metal screen during testing to prevent animals from climbing out of the chamber. Two animals were tested simultaneously in the adjoining boxes, but animals were unable to observe one another.
Animals were weighed and placed into holding cages (2 animals per cage) in the testing room prior to dosing. Following approximately 30 minutes of acclimation to the testing room, each pair of animals was administered orally (PO) by gavage a mixture of invention compound plus vehicle or vehicle alone. The treated animals were then placed in individual test chambers and allowed to acclimate to the chambers for at least 20 minutes. Then 50 μL of a 2.5% solution of formalin in vehicle was injected subcutaneously (SC) in the plantar surface of the left hindpaw from 30 to 120 minutes after administration of the invention compound. A session timer was started following the formalin injection, and the amount of time the animal spent licking or biting the injected paw was clocked with a hand-held stopwatch. The cumulative time spent engaging in a pain response was manually recorded at 5-minute intervals for 45 minutes post formalin injection. Early phase responding included Minutes 0 to 10, and late phase responding included Minutes 11 to 45. At the end of the testing period, animals were sacrificed using carbon dioxide. […]

Setting [2] is: Table 2, 4 nM [3H]-ifenprodil, read-out: IFPNR IC50 μm.
Where [3] appears, read: Table 3, 4 nM [3H]-ifenprodil, read-out: IFPNR IC50.
Setting [4] is: Table 4, 4 nM [3H]-ifenprodil, read-out: IFPNR IC50.

Structures can show the parent of a compound that is named as a salt. Where two headings read alike, the source gives them in different places. A value given as a limit tells only on which side of the number the result lay.

T1 sequence (Q00960 27-1482, other chains not shown): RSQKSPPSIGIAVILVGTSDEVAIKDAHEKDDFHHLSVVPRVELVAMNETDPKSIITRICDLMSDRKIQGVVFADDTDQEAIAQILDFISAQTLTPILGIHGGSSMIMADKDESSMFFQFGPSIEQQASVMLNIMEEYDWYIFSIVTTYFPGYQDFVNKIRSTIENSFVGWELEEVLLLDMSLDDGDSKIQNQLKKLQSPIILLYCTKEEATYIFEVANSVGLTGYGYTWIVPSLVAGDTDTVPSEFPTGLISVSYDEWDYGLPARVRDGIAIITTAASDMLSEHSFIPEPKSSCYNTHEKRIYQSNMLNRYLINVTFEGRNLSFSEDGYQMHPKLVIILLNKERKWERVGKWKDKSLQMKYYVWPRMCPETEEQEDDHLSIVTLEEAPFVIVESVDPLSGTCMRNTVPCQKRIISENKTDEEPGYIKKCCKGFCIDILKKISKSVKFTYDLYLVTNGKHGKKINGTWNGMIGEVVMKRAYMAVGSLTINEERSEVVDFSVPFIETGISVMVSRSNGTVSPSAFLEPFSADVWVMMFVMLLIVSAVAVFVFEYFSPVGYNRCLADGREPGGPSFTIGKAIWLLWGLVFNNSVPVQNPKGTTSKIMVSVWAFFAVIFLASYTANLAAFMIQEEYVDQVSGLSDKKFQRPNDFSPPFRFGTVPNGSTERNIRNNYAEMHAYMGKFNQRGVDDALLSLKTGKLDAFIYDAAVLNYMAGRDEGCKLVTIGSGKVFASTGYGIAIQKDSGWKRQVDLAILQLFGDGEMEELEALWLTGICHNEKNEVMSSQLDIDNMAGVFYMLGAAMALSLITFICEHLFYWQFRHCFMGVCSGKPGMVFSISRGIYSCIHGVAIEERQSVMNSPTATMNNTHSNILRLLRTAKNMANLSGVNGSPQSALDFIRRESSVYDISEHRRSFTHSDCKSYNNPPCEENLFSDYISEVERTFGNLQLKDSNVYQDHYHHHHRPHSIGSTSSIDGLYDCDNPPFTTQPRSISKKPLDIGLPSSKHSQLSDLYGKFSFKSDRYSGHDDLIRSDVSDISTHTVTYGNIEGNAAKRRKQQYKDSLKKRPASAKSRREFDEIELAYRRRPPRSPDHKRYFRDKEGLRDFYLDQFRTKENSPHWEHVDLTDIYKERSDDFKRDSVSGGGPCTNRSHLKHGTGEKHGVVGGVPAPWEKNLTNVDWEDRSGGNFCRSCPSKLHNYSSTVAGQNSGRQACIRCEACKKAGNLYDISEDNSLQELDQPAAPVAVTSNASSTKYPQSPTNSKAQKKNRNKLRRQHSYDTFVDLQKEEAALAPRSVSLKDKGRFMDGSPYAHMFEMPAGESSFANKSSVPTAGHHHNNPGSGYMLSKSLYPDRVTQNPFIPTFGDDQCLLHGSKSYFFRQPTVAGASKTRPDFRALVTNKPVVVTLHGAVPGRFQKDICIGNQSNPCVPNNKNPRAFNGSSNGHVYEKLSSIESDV

Turning to `O=c1[nH]c2ccc(C3CC(CN4CCC(Cc5ccc(F)cc5)CC4)=NO3)cc2o1` (centres unmarked) [Example 5, 6-{3-[4-(4-Fluorobenzyl)piperidin-1-ylmethyl]-4,5-dihydroisoxazol-5-yl}-3H-benzoxazol-2-one], in data set [1] (setting [2]), the IC50 (usually the point on the concentration scale where inhibition reaches its midpoint) is 0.047 µM. Further, the “FT (mg/kg), active dose” value in the data set with Male Wistar albino rats (Table 2) was above 30 mg/kg.
Take `O=c1[nH]c2ccc(C3=NOC(CN4CCC(c5ccc(F)cc5)CC4)C3)cc2o1` (centres unmarked) [Example 34, -{5-[4-(4-Fluorophenyl)piperidin-1-ylmethyl]-4,5-dihydroisoxazol-3-yl}-3H-benzoxazol-2-one]: the melting point (commonly the temperature, or range, at which the solid turns liquid) fell in the range of 214 to 217 °C. The IC50 in data set [1] (setting [3]) amounted to 0.28 µM.
For `O=c1[nH]c2ccc(C3=NOC(CN4CCC(Oc5ccc(F)cc5)CC4)C3)cc2o1` (centres unmarked) [Example 27, 6-{5-[4-(4-Fluorophenoxy)piperidin-1-ylmethyl]-4,5-dihydroisoxazol-3-yl}-3-H-benzoxazol-2-one], the melting point was 192 to 194 °C. In addition, the IC50 in data set [1] (setting [4]) turned out to be 0.059 µM.
As to `O=C(C1CC(c2ccc3[nH]c(=O)oc3c2)=NO1)N1CCC(Cc2ccc(F)cc2)CC1` (centres unmarked) [Example 18, 6-{5-[4-(4-Fluorobenzyl)piperidine-1-carbonyl]-4,5-dihydroisoxazol-3-yl}-3H-benzoxazol-2-one], the melting point lay in the range of 210 to 213 °C. Besides, the IC50 in data set [1] (setting [3]) was above 1 µM.
As for `O=C(O)C1(CN2CCC(Cc3ccc(F)cc3)CC2)CC(c2ccc3[nH]c(=O)oc3c2)=NO1` (centres unmarked) [Example 22, 5-[4-(4-Fluorobenzyl)piperidin-1-ylmethyl]-3-(2-oxo-2,3-dihydrobenzoxazol-6-yl)-4,5-dihydroisoxazole-5-carboxylic acid], the melting point was 188 to 194 °C. In addition, in data set [1] (setting [2]), the IC50 was determined as 0.788 µM.
In the case of `O=C(c1ccc(F)cc1)C1CCN(CC2CC(c3ccc4[nH]c(=O)oc4c3)=NO2)CC1` (centres unmarked) [Example 30, 6-{5-[4-(4-Fluorobenzoyl)piperidin-1-ylmethyl]-4,5-dihydroisoxazol-3-yl}-3H-benzoxazol-2-one], the melting point was in the range of 188 to 190 °C. For the same compound, the IC50 in data set [1] (setting [4]) was 0.759 µM.
In turn, `O=c1[nH]c2ccc(C3=NOC(CN4CCC(O)(c5ccccc5)CC4)C3)cc2o1` (centres unmarked) [Example 35] registered a melting point of 115 to 118 °C. Moreover, in data set [1] (setting [3]), the IC50 was above 1 µM.
On to `O=c1[nH]c2ccc(C3=NOC(CN4CCC(O)(Cc5ccc(F)cc5)CC4)C3)cc2o1` (centres unmarked) (as salt: HCl) [Example 20, 6-{5-[4-(4-Fluorobenzyl)-4-hydroxypiperidin-1-ylmethyl]-4,5-dihydroisoxazol-3-yl}-3H-benzoxazol-2-one], for which the melting point lay within 195 to 204 °C.
For `O=c1[nH]c2ccc(-c3cc(CN4CCC(Cc5ccc(F)cc5)CC4)on3)cc2o1` [Example 15, 6-{5-[4-(4-Fluorobenzyl)piperidin-1-ylmethyl]isoxazol-3-yl}-3H-benzoxazol-2-one], the melting point was in the range of 237 to 244 °C. Also, in data set [1] (setting [2]), the IC50 turned out to be 0.499 µM.
As to `O=c1[nH]c2ccc(C3=NOC(CN4CCC(Cc5ccc(F)cc5)CC4)C3)cc2o1` (single isomer, unassigned; (+)) [Example 4a, (+)-6-{5-[4-(4-fluorobenzyl)piperidin-1-ylmethyl]-4,5-dihydroisoxazol-3-yl}-3H-benzoxazol-2-one], the IC50 in data set [1] (Table 1, 4 nM [3H]-ifenprodil, read-out: IFPNR (IC50 μM)) is 0.016 µM. The “FT (mg/kg), active dose” value in the data set on Male Wistar albino rats (Table 1) is given as below 10 mg/kg.
Compound `CC1(CN2CCC(Cc3ccc(F)cc3)CC2)CC(c2ccc3[nH]c(=O)oc3c2)=NO1` (centres unmarked) [Example 21, 6-{5-[4-(4-Fluorobenzyl)piperidin-1-ylmethyl]-5-methyl-4,5-dihydroisoxazol-3-yl}-3H-benzoxazol-2-one] displayed a melting point of 82 to 86 °C. In addition, the IC50 in data set [1] (setting [2]) turned out to be 0.011 µM.
`O=c1[nH]c2ccc(C3=NOC(CN4CCC(Sc5ccc(F)cc5)CC4)C3)cc2o1` (centres unmarked) [Example 28, 6-{5-[4-(4-Fluorophenylsulfanyl)piperidin-1-ylmethyl]-4,5-dihydroisoxazol-3-yl}-3H-benzoxazol-2-one] came in with a melting point of 190 to 192 °C. Further, the IC50 in data set [1] (setting [4]) is 0.018 µM.
The matching figures for `CC(O)(c1ccc(F)cc1)C1CCN(CC2CC(c3ccc4[nH]c(=O)oc4c3)=NO2)CC1` (centres unmarked) [Example 32, 6-(5-{4-[1-(4-Fluorophenyl)-1-hydroxyethyl]piperidin-1-ylmethyl}-4,5-dihydroisoxazol-3-yl)-3H-benzoxazol-2-one]: 125 to 134 °C and above 1 µM.
The compound `Cc1c(C2=NOC(CN3CCC(Cc4ccc(F)cc4)CC3)C2)cc2oc(=O)[nH]c2c1Cl` (centres unmarked) [Example 33, 4-Chloro-6-{5-[4-(4-fluorobenzyl)piperidin-1-ylmethyl]-4,5-dihydroisoxazol-3-yl}-5-methyl-3H-benzoxazol-2-one] showed a melting point of 131 to 132 °C. The IC50 in data set [1] (Table 5, 4 nM [3H]-ifenprodil, read-out: IFPNR IC50) turned out to be 0.014 µM.
Regarding `O=c1[nH]c2ccc(C3=NOC(CCN4CCC(c5ccc(F)cc5)CC4)C3)cc2o1` (centres unmarked) [Example 36, 6-(5-{2-[4-(4-Fluorophenyl)piperidin-1-yl]ethyl}-4,5-dihydroisoxazol-3-yl)-3H-benzoxazol-2-one], the melting point fell in the range of 188 to 194 °C. Further, in data set [1] (setting [3]), the IC50 was above 1 µM.
